The values below are quoted from earlier work in US20060251690A1, “Skin enrichment using CoQ10 as the delivery system” (Zymes, LLC, priority 2005, published 2006).

The conditions of data set [1]: human skin (in vitro).
Experiment in data set [2]: not given
The source holds these as a separate data set.

For data set [3] the following is noted: after chronic topical use, combined with other fat and water soluble ingredients.
Experiment in data set [4]: not given
This is another data set of the same source.

SMILES strings stand for the structures. Like-named read-outs stand apart in the source and are kept apart here.

On to `O=C(O)CCCCCCCC(=O)O` [azelaic acid], for which the half-life after application is 12 h. For the same molecule, the “applied dose found in the epidermis and dermis” value in data set [1] is on record as “Up to 10%”.

Consider `O=C1O[C@H]([C@@H](O)CO)C(O)=C1O` [vitamin C], for which the half life in data set [2] (autoxidation named as cause) was 0.5 h.

As to `COc1ccc(-c2ccc3cc(C(=O)O)ccc3c2)cc1C12CC3CC(CC(C3)C1)C2` [adapalene], the absorption of adapalene in data set [3] is reported as under 0.25 ng/mL. Moreover, the “solubility in polar solvents such as ethanol” value in data set [4] (ethanol) is listed as “only sparingly soluble”. Also, in data set [4] (water), the solubility in water result was “virtually insoluble”.

As to `COC1=C(OC)C(=O)C(C/C=C(\C)CC/C=C(\C)CC/C=C(\C)CC/C=C(\C)CC/C=C(\C)CC/C=C(\C)CC/C=C(\C)CC/C=C(\C)CC/C=C(\C)CCC=C(C)C)=C(C)C1=O` [CoQ10, 2,3 dimethoxy-5 methyl-6 decaprenyl benzoquinone], the half life in data set [2] was over 30 h.
